Reference: DBAASP
Converted amounts (≈) assume the structure as drawn. Values belong to the molecule of their own block, whether it stands above or below them.

Tests used:
Test in all cases: ≥ marks a high value that may be exact or a test limit, other limits are often not marked, values filed in µg/mL are converted to µM
[1] = test system: Bacillus megaterium ATCC 19213
[2] = test system: Bacillus subtilis NBRC 3513
[3] = test system: Enterococcus faecalis NBRC 3989
[4] = test system: Escherichia coli NBRC 12734
[5] = test system: Klebsiella pneumoniae NBRC 3317
[6] = test system: Pseudomonas aeruginosa NBRC 3080
[7] = test system: Salmonella typhimurium NBRC 12529
[8] = test system: Serratia marcescens NBRC 3046
[9] = test system: Staphylococcus aureus NBRC 12732
[10] = test system: Staphylococcus epidermidis NBRC 12933
[11] = test system: Aeromonas caviae IP67-16T
[12] = test system: Aspergillus fumigatus IP1025-70
[13] = test system: Aspergillus niger IP218-53
[14] = test system: Candida albicans IP884-65
[15] = test system: Cryptococcus neoformans IP960-67
[16] = test system: Enterococcus faecalis IP103214
Escherichia coli IP76-24 = test system: Escherichia coli IP76-24
[17] = test system: Nocardia brasiliensis IP16-80
[18] = test system: Saccharomyces cerevisiae IP118079
[19] = test system: Staphylococcus aureus IP76-25
[20] = test system: Trichophyton simii IP1063-74
[21] = test system: Bacillus subtilis PCI 219
[22] = test system: Escherichia coli NIHJ JC-2
[23] = test system: Pseudomonas aeruginosa U-31
[24] = test system: Staphylococcus aureus FDA 209P
[25] = test system: Aspergillus fumigatus IOC 4526
[26] = test system: Candida albicans ATCC 36802
[27] = test system: Candida albicans IOC 4558
[28] = test system: Candida glabrata IOC 4565
Candida krusei IOC 4559 = test system: Candida krusei IOC 4559
[29] = test system: Candida parapsilosis IOC 4564
[30] = test system: Candida tropicalis IOC 4560
[31] = test system: Cryptococcus neoformans ATCC 90112
[32] = test system: Cryptococcus neoformans IOC 4528
Escherichia coli SBS 363 = test system: Escherichia coli SBS 363
Micrococcus luteus A270 = test system: Micrococcus luteus A270
[33] = test system: Pseudomonas aeruginosa ATCC 27853
[34] = test system: Staphylococcus aureus ATCC 29213
[35] = test system: Trichophyton rubrum IOC 4527
[36] = test system: Trichosporon sp. IOC 4569
[37] = test system: Micrococcus luteus NBRC 12708
Carnobacterium mobile = test system: Carnobacterium mobile
Fusarium oxysporum = test system: Fusarium oxysporum

Structure (SMILES): CC[C@H](C)[C@H](NC(=O)CNC(=O)[C@H](CCCCN)NC(=O)[C@H](CC(C)C)NC(=O)[C@H](CCSC)NC(=O)[C@H](CC(N)=O)NC(=O)[C@H](CCCCN)NC(=O)[C@H](Cc1c[nH]c2ccccc12)NC(=O)[C@H](CC(C)C)NC(=O)[C@H](C)N)C(=O)NCC(=O)N[C@@H](CCCCN)C(=O)N[C@@H](CC(C)C)C(=O)N[C@@H](C)C(=O)NCC(N)=O [ALWKNMLKGIGKLAG]
MIC [11]: 3 µM (≈ 4.8 µg/mL)
MIC [12]: 20 µM (≈ 32 µg/mL)
MIC [13]: ≥ 40 µM
MIC [14]: 20 µM (≈ 32 µg/mL)
MIC [15]: 3 µM (≈ 4.8 µg/mL)
MIC [16]: 3 µM (≈ 4.8 µg/mL)
MIC (Escherichia coli IP76-24): 3 µM (≈ 4.8 µg/mL)
MIC [17]: ≥ 150 µM
MIC [18]: 10 µM (≈ 16 µg/mL)
MIC [19]: ≥ 150 µM
MIC [20]: 30 µM (≈ 48 µg/mL)

Structure (SMILES): CC(C)C[C@H](NC(=O)[C@H](CC(C)C)NC(=O)[C@H](CCCCN)NC(=O)[C@H](CC(C)C)NC(=O)[C@H](CC(C)C)NC(=O)[C@H](CCCCN)NC(=O)[C@H](CCCCN)NC(=O)[C@H](Cc1c[nH]c2ccccc12)NC(=O)[C@H](CC(C)C)NC(=O)[C@H](CCCCN)NC(=O)[C@H](CC(C)C)NC(=O)[C@H](CC(C)C)NC(=O)[C@H](CC(C)C)NC(=O)[C@H](CCCCN)NC(=O)[C@H](CC(C)C)NC(=O)[C@H](CC(C)C)NC(=O)[C@@H](N)CCCCN)C(=O)N[C@@H](CCCCN)C(=O)O [KLLKLLLKLWKKLLKLLK]
MIC [21]: ≥ 44.8 µM
MIC [22]: ≥ 44.8 µM
MIC [23]: ≥ 44.8 µM
MIC [24]: ≥ 44.8 µM

Structure (SMILES): CSCC[C@H](NC(=O)[C@@H](N)CCCCN)C(=O)N[C@@H](CC(=O)O)C(=O)N[C@@H](CO)C(=O)N[C@@H](CCCN=C(N)N)C(=O)N[C@@H](Cc1c[nH]c2ccccc12)C(=O)N[C@@H](CCCN=C(N)N)C(=O)N[C@@H](Cc1c[nH]c2ccccc12)C(=O)N[C@@H](CCCCN)C(=O)N[C@@H](CO)C(=O)N[C@@H](CO)C(=O)N[C@@H](CCCCN)C(=O)N[C@@H](CCCCN)C(=O)O [KMDSRWRWKSSKK]
MIC [25]: ≥ 58 µM
MIC [26]: ≥ 58 µM
MIC [27]: ≥ 46.4 µM
MIC [28]: ≥ 46.4 µM
MIC (Candida krusei IOC 4559): ≥ 32.8 µM
MIC [29]: ≥ 46.4 µM
MIC [30]: ≥ 46.4 µM
MIC [31]: 4.92 µM (≈ 8.49 µg/mL)
MIC [32]: 4.92 µM (≈ 8.49 µg/mL)
MIC (Escherichia coli SBS 363): ≥ 46.4 µM
MIC (Micrococcus luteus A270): 4.92 µM (≈ 8.49 µg/mL)
MIC [33]: 16.4 µM (≈ 28.3 µg/mL)
MIC [34]: > 23.2 µM
MIC [35]: ≥ 58 µM
MIC [36]: ≥ 32.8 µM

Structure (SMILES): CC[C@H](C)[C@@H]1NC(=O)[C@H](C)NC(=O)[C@H](CC(C)C)NC(=O)[C@@H]2CSSC[C@@H](C(=O)N[C@@H](CCCN=C(N)N)C(=O)N[C@@H](CCCN=C(N)N)C(=O)O)NC(=O)[C@H](C(C)C)NC(=O)[C@@H]3CSSC[C@H](NC(=O)[C@H](CC(C)C)NC(=O)[C@H](CO)NC(=O)[C@H](Cc4cnc[nH]4)NC(=O)[C@H](CC(N)=O)NC(=O)[C@H](C)NC(=O)[C@H](C)NC(=O)[C@H](Cc4ccccc4)NC(=O)CNC(=O)[C@H](CCCCN)NC(=O)[C@H](C)NC(=O)[C@H](CCC(=O)O)NC(=O)[C@H](Cc4ccccc4)NC(=O)[C@H](CO)NC(=O)[C@H](CC(C)C)NC(=O)[C@H](CC(C)C)NC(=O)[C@H](CC(=O)O)NC(=O)[C@@H](NC(=O)[C@@H](NC(=O)[C@@H](N)CC(C)C)[C@@H](C)O)CSSC[C@H](NC(=O)[C@H](C)NC(=O)CNC(=O)CNC(=O)[C@H](CCCCN)NC(=O)[C@H](CCCN=C(N)N)NC(=O)CNC1=O)C(=O)N[C@@H](CCC(N)=O)C(=O)N[C@@H](CC(N)=O)C(=O)NCC(=O)N[C@@H](C(C)C)C(=O)N3)C(=O)N[C@@H](C)C(=O)N[C@@H](C)C(=O)N[C@@H](Cc1cnc[nH]1)C(=O)N2 [LTCDLLSFEAKGFAANHSLCAAHCLAIGRKGGACQNGVCVCRR]
MIC [37]: 1.12 µM
MIC [9]: 0.112 µM

The remaining lines, values ahead:

MIC [1]: 4 µM (≈ 9.37 µg/mL)
MIC [2]: 8 µM (≈ 18.7 µg/mL)
MIC [3]: ≥ 128 µM
MIC [4]: ≥ 128 µM
MIC [5]: ≥ 128 µM
MIC [6]: ≥ 128 µM
MIC [7]: ≥ 128 µM
MIC [8]: ≥ 128 µM
MIC [9]: 2 µM (≈ 4.69 µg/mL)
MIC [10]: 16 µM (≈ 37.5 µg/mL)
Structure (SMILES): CC[C@H](C)[C@H](NC(=O)[C@H](C)N)C(=O)N[C@@H](Cc1ccccc1)C(=O)N[C@H](C(=O)N[C@@H](Cc1ccccc1)C(=O)N[C@H](C(=O)N[C@@H](CCCN=C(N)N)C(=O)N[C@@H](Cc1c[nH]c2ccccc12)C(=O)N[C@@H](CC(C)C)C(=O)N[C@@H](CC(C)C)C(=O)N[C@@H](CCCCN)C(=O)N[C@@H](CC(C)C)C(=O)NCC(=O)N[C@@H](Cc1cnc[nH]1)C(=O)N[C@@H](Cc1cnc[nH]1)C(=O)NCC(=O)N[C@@H](CCCN=C(N)N)C(=O)N[C@@H](C)C(=O)N1CCC[C@H]1C(=O)N1CCC[C@H]1C(=O)O)[C@@H](C)CC)[C@@H](C)CC [AIFIFIRWLLKLGHHGRAPP]

MIC (Carnobacterium mobile): 0.0025 µM (≈ 0.00534 µg/mL)
MIC (Fusarium oxysporum): 0.1 µM (≈ 0.214 µg/mL)
Structure (SMILES): CSCC[C@H](N)C(=O)N[C@@H](C)C(=O)N[C@@H](C)C(=O)N[C@@H](CCCN=C(N)N)C(=O)N[C@@H](C)C(=O)N[C@@H](C)C(=O)N[C@@H](CCCN=C(N)N)C(=O)N[C@@H](CC(C)C)C(=O)N[C@@H](C)C(=O)N[C@@H](C)C(=O)N[C@@H](CCCN=C(N)N)C(=O)N[C@@H](CC(C)C)C(=O)N[C@@H](C)C(=O)N[C@@H](CCCN=C(N)N)C(=O)N[C@@H](CC(C)C)C(=O)N[C@@H](C)C(=O)N[C@@H](CC(C)C)C(=O)N[C@@H](CCCN=C(N)N)C(=O)N[C@@H](C)C(=O)N[C@@H](CC(C)C)C(=O)O [MAARAARLAARLARLALRAL]
